# Measured values reported in patent US10174067B2, “Type of cytidine derivative and application thereof” (priority 2014, dated 2019).
# Marks after values point to notes of the source that are not given here.
# Key:
# [1] = system: ICR mice; assay: in vivo; settings: female ICR mice; single-dose ip
# Procedure, shortened: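 Female SPF ICR mice received a single ip dose in ethanol/Cremophor EL/saline (5:5:90), with dose lowered after deaths and raised otherwise. MTD defined as dose causing no death, no >10% weight loss versus Day 0 and no significant side effects; daily weights and twice-daily clinical observation over 7-14 days.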
# [2] = system: HCT-116 colon cancer xenografts; assay: Tumor growth inhibition of HCT-116 colon cancer xenografts in tumor-bearing nude mice (tumor volume, TGI %, RTV, T/C %); format: in vivo, Balb/c Nude mice; settings: for Day 0 (RTV) / Tumor volume, Day 0 / Day 4 (RTV) / Tumor volume, Day 4 / Day 6 (RTV) / Tumor volume, Day 6 / Day 8 (RTV) / Tumor volume, Day 8 / Day 11 (RTV) / Tumor volume, Day 11 / Day 13 (RTV) / Tumor volume, Day 13 / Day 15 (RTV) / Tumor volume, Day 15 / Day 18 (RTV) / Tumor volume, Day 18 / Day 20 (RTV) / Tumor volume, Day 20 / Day 22 (RTV) / Tumor volume, Day 22: Mean±SEM; for T/C % (relative tumor proliferation rate): single-dose intraperitoneal, dosage mg/kg: G3, G4, G8 350, G5, G9 325, G6 300, G7 250; for maximum value of TGI %: day of maximum: G3 Day 8, G4 Day 11, G5 Day 11, G9 Day 4, G7 Day 8;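 as to T/C % (relative tumor proliferation rate): control C is the vehicle-treated model control group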
# Procedure, shortened: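 Nude mice inoculated with HCT-116 cells (about 3×10^7 cells/mL in serum-free medium). Tumor diameter measured three times weekly and volume computed as V=3/4π(D/2)^3. Activity expressed as TGI (%) and T/C (%) from relative tumor volume Vt/V0, with V0 taken at grouping and dosing start; P<0.05 significant.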
# [3] = for Weight change rate, Day 0 / Weight of mice, Day 0 / Weight change rate, Day 4 / Weight of mice, Day 4 / Weight change rate, Day 6 / Weight of mice, Day 6 / Weight change rate, Day 8 / Weight of mice, Day 8 / Weight change rate, Day 11 / Weight of mice, Day 11 / Weight change rate, Day 13 / Weight of mice, Day 13 / Weight change rate, Day 15 / Weight of mice, Day 15 / Weight change rate, Day 18 / Weight of mice, Day 18 / Weight change rate, Day 20 / Weight of mice, Day 20 / Weight change rate, Day 22 / Weight of mice, Day 22: G3-G9 groups, single IP dose, Mean±SEM; for Day 22 Mortality: single IP dose (mg/kg); for clinical symptoms: after single IP dose, compared with model control group
# Procedure, shortened: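 Female SPF Balb/c nude mice bearing subcutaneous HCT-116 xenografts (3×10^6 cells, right hind limb), grouped at 60–150 mm^3, 6 per group; vehicle ethanol/Cremophor EL/saline 5:5:90. Body weight thrice weekly; tumours excised and weighed at sacrifice; Mean±SEM, unpaired t-test, P<0.05.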
# [4] = Day 0, G3-G9 groups, single IP dose
# [5] = Day 4, G3-G9 groups, single IP dose
# [6] = Day 6, G3-G9 groups, single IP dose
# [7] = Day 8, G3-G9 groups, single IP dose
# [8] = Day 11, G3-G9 groups, single IP dose
# [9] = Day 13, G3-G9 groups, single IP dose
# [10] = Day 15, G3-G9 groups, single IP dose
# [11] = Day 18, G3-G9 groups, single IP dose
# [12] = Day 20, G3-G9 groups, single IP dose
# [13] = Day 22, G3-G9 groups, single IP dose
compound,measurement,setting,value
"CC(C)(C)OC(=O)Nc1ccn([C@@H]2O[C@H](CO)[C@@H](O)C2(F)F)c(=O)n1 [Compound G3, 4N-(t-butyloxycarbonyl)-2′deoxy-2′,2′-difluorocytidine]","dose that could be tolerated (maximum tolerated dose, MTD)",[1],350 mg/kg
same,Day 0 (RTV),[2]; [4],1.00 ± 0.00
same,"Tumor volume, Day 0",[2]; [4],52.61 ± 13.58** mm^3
same,T/C % (relative tumor proliferation rate),[2]; Day 0,0.00%
same,Day 4 (TGI %),[2]; [5],57.58%
same,Day 4 (RTV),[2]; [5],1.72 ± 0.37
same,"Tumor volume, Day 4",[2]; [5],113.01 ± 44.54 mm^3
same,T/C % (relative tumor proliferation rate),[2]; Day 4,91.44%
same,Day 6 (TGI %),[2]; [6],57.20%
same,Day 6 (RTV),[2]; [6],3.21 ± 0.87
same,"Tumor volume, Day 6",[2]; [6],180.94 ± 66.04* mm^3
same,T/C % (relative tumor proliferation rate),[2]; Day 6,106.22%
same,Day 8 (TGI %),[2]; [7],58.10%
same,Day 8 (RTV),[2]; [7],3.91 ± 1.20
same,"Tumor volume, Day 8",[2]; [7],220.12 ± 86.80* mm^3
same,T/C % (relative tumor proliferation rate),[2]; Day 8,104.00%
same,Day 11 (TGI %),[2]; [8],48.19%
same,Day 11 (RTV),[2]; [8],7.44 ± 23.2
same,"Tumor volume, Day 11",[2]; [8],416.66 ± 160.05 mm^3
same,T/C % (relative tumor proliferation rate),[2]; Day 11,125.12%
same,Day 13 (TGI %),[2]; [9],54.18%
same,Day 13 (RTV),[2]; [9],8.92 ± 2.48
same,"Tumor volume, Day 13",[2]; [9],531.90 ± 203.98* mm^3
same,T/C % (relative tumor proliferation rate),[2]; Day 13,103.73%
same,Day 15 (TGI %),[2]; [10],46.45%
same,Day 15 (RTV),[2]; [10],13.32 ± 4.00
same,"Tumor volume, Day 15",[2]; [10],756.53 ± 280.79 mm^3
same,T/C % (relative tumor proliferation rate),[2]; Day 15,127.18%
same,Day 18 (TGI %),[2]; [11],45.71%
same,Day 18 (RTV),[2]; [11],17.04 ± 5.01
same,"Tumor volume, Day 18",[2]; [11],1004.83 ± 385.58 mm^3
same,T/C % (relative tumor proliferation rate),[2]; Day 18,123.71%
same,Day 20 (TGI %),[2]; [12],41.37%
same,Day 20 (RTV),[2]; [12],21.58 ± 6.58
same,"Tumor volume, Day 20",[2]; [12],1242.64 ± 464.52 mm^3
same,T/C % (relative tumor proliferation rate),[2]; Day 20,136.12%
same,Day 22 (RTV),[2]; [13],24.39 ± 7.52
same,"Tumor volume, Day 22",[2]; [13],1390.74 ± 510.70 mm^3
same,T/C % (relative tumor proliferation rate),[2]; Day 22,125.42%
same,maximum value of TGI %,[2]; single IP,58.10%
same,"Weight change rate, Day 0",[3],0.00 ± 0.00%
same,"Weight of mice, Day 0",[3],20.47 ± 0.42 g
same,"Weight change rate, Day 4",[3]; Day 4,3.13 ± 1.03 %
same,"Weight of mice, Day 4",[3]; Day 4,21.10 ± 0.41 g
same,"Weight change rate, Day 6",[3]; Day 6,4.36 ± 0.88%
same,"Weight of mice, Day 6",[3]; Day 6,21.35 ± 0.39 g
same,"Weight change rate, Day 8",[3],2.86 ± 2.28%
same,"Weight of mice, Day 8",[3],21.03 ± 0.52 g
same,"Weight change rate, Day 11",[3],4.67 ± 0.64%
same,"Weight of mice, Day 11",[3],21.43 ± 0.56 g
same,"Weight change rate, Day 13",[3],6.20 ± 0.88 %
same,"Weight of mice, Day 13",[3],21.75 ± 0.60 g
same,"Weight change rate, Day 15",[3],3.40 ± 1.34%
same,"Weight of mice, Day 15",[3],21.18 ± 0.66 g
same,"Weight change rate, Day 18",[3],2.66 ± 1.40%
same,"Weight of mice, Day 18",[3],21.03 ± 0.68 g
same,"Weight change rate, Day 20",[3],2.40 ± 1.27%
same,"Weight of mice, Day 20",[3],20.98 ± 0.68 g
same,"Weight change rate, Day 22",[3],3.33 ± 2.34%
same,"Weight of mice, Day 22",[3],21.17 ± 0.77 g
same,Day 22 Mortality,[3],0%
same,clinical symptoms,[3],no significant differences in clinical symptoms
"O=C(Nc1nc(=O)n([C@@H]2O[C@H](CO)[C@@H](O)C2(F)F)cc1Br)OCc1ccccc1 [Compound G7, 5-Br-4-N-(carboxybenzyl)-2′-deoxy-2′,2′-difluorocytidine]","dose that could be tolerated (maximum tolerated dose, MTD)",[1],200 mg/kg
same,Day 0 (RTV),[2]; [4],1.00 ± 0.00
same,"Tumor volume, Day 0",[2]; [4],133.56 ± 10.23 mm^3
same,T/C % (relative tumor proliferation rate),[2]; Day 0,0.00%
same,Day 4 (TGI %),[2]; [5],53.12%
same,Day 4 (RTV),[2]; [5],0.92 ± 0.08
same,"Tumor volume, Day 4",[2]; [5],124.90 ± 18.89* mm^3
same,T/C % (relative tumor proliferation rate),[2]; Day 4,48.99%
same,Day 6 (TGI %),[2]; [6],78.40%
same,Day 6 (RTV),[2]; [6],0.66 ± 0.12
same,"Tumor volume, Day 6",[2]; [6],91.30 ± 21.79** mm^3
same,T/C % (relative tumor proliferation rate),[2]; Day 6,22.02%
same,Day 8 (TGI %),[2]; [7],82.62%
same,Day 8 (RTV),[2]; [7],0.66 ± 0.12
same,"Tumor volume, Day 8",[2]; [7],91.30 ± 21.79*** mm^3
same,T/C % (relative tumor proliferation rate),[2]; Day 8,17.67%
same,tumor inhibition effect,[2]; Day 8 to Day 13 after single-dose intraperitoneal administration,good tumor inhibition effect
same,Day 11 (TGI %),[2]; [8],81.27%
same,Day 11 (RTV),[2]; [8],1.10 ± 0.23
same,"Tumor volume, Day 11",[2]; [8],150.60 ± 38.77** mm^3
same,T/C % (relative tumor proliferation rate),[2]; Day 11,18.54%
same,Day 13 (TGI %),[2]; [9],80.80%
same,Day 13 (RTV),[2]; [9],1.66 ± 0.10
same,"Tumor volume, Day 13",[2]; [9],222.86 ± 25.56** mm^3
same,T/C % (relative tumor proliferation rate),[2]; Day 13,19.33%
same,Day 15 (TGI %),[2]; [10],72.81%
same,Day 15 (RTV),[2]; [10],2.91 ± 0.35
same,"Tumor volume, Day 15",[2]; [10],384.06 ± 36.79* mm^3
same,T/C % (relative tumor proliferation rate),[2]; Day 15,27.80%
same,Day 18 (TGI %),[2]; [11],65.62%
same,Day 18 (RTV),[2]; [11],4.86 ± 0.65
same,"Tumor volume, Day 18",[2]; [11],636.39 ± 30.26* mm^3
same,T/C % (relative tumor proliferation rate),[2]; Day 18,35.32%
same,Day 20 (TGI %),[2]; [12],51.28%
same,Day 20 (RTV),[2]; [12],7.99 ± 1.70
same,"Tumor volume, Day 20",[2]; [12],1032.60 ± 127.82 mm^3
same,T/C % (relative tumor proliferation rate),[2]; Day 20,50.40%
same,Day 22 (TGI %),[2]; [13],44.07%
same,Day 22 (RTV),[2]; [13],11.40 ± 2.93
same,"Tumor volume, Day 22",[2]; [13],1462.80 ± 246.74 mm^3
same,T/C % on Day 22,"[2]; Day 22, G4 350 mg/kg, G5 325 mg/kg, G7 250 mg/kg, single IP",58.62%
same,T/C % (relative tumor proliferation rate),[2]; Day 22,58.62%
same,relative tumor volume compared with the model control group,"[2]; G4 and G5 Day 4 to Day 18, G7 Day 4 to Day 15 (p<0.05-0.01), G9 only Day 4 (p<0.05)",reduced significantly
same,maximum value of TGI %,[2]; single IP,82.62%
same,minimum value of T/C %,"[2]; day of minimum: G4 Day 13, G5 Day 11, G7 Day 8, single IP",17.67%
same,"Weight change rate, Day 0",[3],0.00 ± 0.00%
same,"Weight of mice, Day 0",[3],21.63 ± 1.17 g
same,weights of animals on Day 4 after administration,"[3]; Day 4 (G7: Day 4 and Day 6), p<0.05",significantly reduced
same,"Weight change rate, Day 4",[3]; Day 4,−12.28 ± 4.78 %
same,"Weight of mice, Day 4",[3]; Day 4,18.87 ± 0.09 g
same,weight loss rate on Day 4 after administration,"[3]; Day 4, G4 350 mg/kg, G5 325 mg/kg, G7 250 mg/kg, single IP",12.28±4.78%
same,"Weight change rate, Day 6",[3]; Day 6,−4.39 ± 3.60 %
same,"Weight of mice, Day 6",[3]; Day 6,20.60 ± 0.32 g
same,weight loss rate on Day 6 after administration,"[3]; Day 6, G7 250 mg/kg, single IP",4.39±3.6%
same,"Weight change rate, Day 8",[3],−1.24 ± 2.80%
same,"Weight of mice, Day 8",[3],21.30 ± 0.55 g
same,"Weight change rate, Day 11",[3],1.86 ± 3.24%
same,"Weight of mice, Day 11",[3],21.97 ± 0.59 g
same,"Weight change rate, Day 13",[3],5.62 ± 2.15%
same,"Weight of mice, Day 13",[3],22.80 ± 0.76 g
same,"Weight change rate, Day 15",[3],7.71 ± 1.47%
same,"Weight of mice, Day 15",[3],23.27 ± 0.93 g
same,"Weight change rate, Day 18",[3],6.51 ± 2.30%
same,"Weight of mice, Day 18",[3],23.00 ± 0.90 g
same,"Weight change rate, Day 20",[3],5.54 ± 2.07%
same,"Weight of mice, Day 20",[3],22.80 ± 1.00 g
same,"Weight change rate, Day 22",[3],4.65 ± 2.51%
same,"Weight of mice, Day 22",[3],22.60 ± 0.95 g
same,Day 22 Mortality,[3],0%
same,clinical symptoms,[3],no significant differences in clinical symptoms
